Results on 4 molecules are retold here after patent publication US6555370B1, “Bifunctional selectable fusion genes” (Immunex Corporation, priority 1990, dated 2003).

The test system of assay [1] is NIH/3T3 cells. As to the kind of experiment: Long-term proliferation assay for 5-FC sensitivity. The format is cell-based. The settings on record: 10-14 days. How it is done:
C. Negative Selection of Cells Containing the CD-neo (SEQ ID NO:3 Selectable Fusion Gene. To investigate the utility of the neo and CD-neo (SEQ ID NO:3 selectable fusion genes for negative selection, the colonies resulting from each transfection were pooled and expanded into cell lines for further analysis. The NIH/3T3 cells, or NIH/3T3 cells infected with the tgLS(+)neo or tgLS(+)CD-neo retroviruses were assayed for 5-FC^s using a long-term proliferation assay.
First, 1×10^4 cells were seeded into 10 cm tissue culture dishes in complete growth medium and allowed to attach for 4 hours. The medium was then supplemented with various concentrations of G-418 and/or 5-FC (Sigma), after which the cells were incubated for a further 10-14 days. The medium was replaced every 2-4 days. The cells were then fixed in situ with 100% methanol and stained with methylene blue.

Assay [2] has as its system transfected NIH/3T3 cells. As to the kind of experiment: Short term cell proliferation assay for GCV sensitivity. The format is cell-based. How it is done:
(§1) C. Negative Selection of Cells Containing the HyTK (SEQ ID NO:1 Selectable Fusion Gene. To investigate the utility of the HyTK (SEQ ID NO:1 selectable fusion gene for negative selection, the colonies resulting from each transfection (Table 1) were pooled and expanded into cell lines for further analysis. The Hm^r NIH/3T3 cell pools and the Hm^r and HAT^r Rat-2 cell pools were tested for GCV^s in a short term cell proliferation assay as follows.
(§2) The transfected NIH/3T3 and Rat-2 cells (3×10^4 of each) were seeded into 9-cm tissue culture dishes in complete growth medium, and allowed to attach for 4 hours. The medium was then supplemented with various concentrations of GCV (Syntex, Palo Alto, Calif.), and the cells incubated for an additional 60 hours. At this time, the medium was removed, the attached cells were harvested by trypsinization and stained with trypan blue, and the viable cells were counted. Cell growth was expressed as a fraction of the cell growth observed in the absence of GCV. The results shown are the average of triplicate assays.

The next assay deals with transfected Rat-2 cells. The description is as above. The format is cell-based. How it is done:
as §1, §2

In assay [3] the test system is NIH/3T3 cells. Nature of the assay: Long-term cell proliferation assay for GCV sensitivity (colony formation). Format: cell-based. How it is done: Uninfected NIH/3T3 cells and the infected NIH/3T3 cell pools were plated at relatively low cell density (10^4 cells/[…]) in complete growth medium and allowed to attach for 4 hours. The medium was then supplemented with hygromycin B (500 μg/ml), with or without 1 μM GCV, and the cells incubated for a period of 10 days. The medium was then removed and the cells were fixed in situ with 100% methanol and stained with methylene blue. […] Colonies of cells resistant to both Hm and GCV were obtained at a low frequency (10^−4-10^−3) from the retrovirus-infected populations (FIG. 6, plates e and g). The proviruses present in the cells that gave rise to these colonies had likely suffered point mutations, or very small deletions or rearrangements in the HSV-I TK moiety which eliminated the ability to phosphorylate GCV. Similar results were also obtained with Rat-2 cell lines infected with tgLS(+)HyTK or with tgLS(−)CMV/HyTK (data not shown).

The next assay has as its system murine sarcoma (K3T3). Particulars: syngeneic mice; Moolten and Wells 1990; cited from earlier work.
In assay [4] the test system is cells expressing the HSV-I TK gene. The settings on record: cited from earlier work.
Where [5] appears, read: NIH/3T3 cells infected with tgLS(+)CD-neo, 800 μg/ml G-418, 100 μg/ml 5-FC.
The mark [6] stands for this setting: NIH/3T3 cells infected with tgLS(+)neo, 800 μg/ml G-418, 100 μg/ml 5-FC.
[7] abbreviates: uninfected NIH/3T3 cells, 800 μg/ml G-418 or 100 μg/ml 5-FC.

The structures appear in SMILES notation. “Also recorded” adds a separate entry of the source.

On to `Nc1nc(=O)[nH]cc1F` [5-FC, 5-fluorocytosine], for which the “Sensitivity or resistance of cells to the drug” value was “sensitive” in the assay with NIH/3T3 cells [1] (setting [5]), “resistant” in the assay with NIH/3T3 cells [1] (setting [6]) and “resistant” in the assay with NIH/3T3 cells [1] (setting [7]).

Consider `CN[C@@H]1[C@@H](O)[C@@H](O[C@@H]2[C@@H](O)[C@H](O[C@H]3O[C@H]([C@@H](C)O)[C@@H](O)[C@H](O)[C@H]3N)[C@@H](N)C[C@H]2N)OC[C@]1(C)O` [G-418], for which the “Sensitivity or resistance of cells to the drug” value is given as “resistant” with NIH/3T3 cells [1] (setting [5]), “resistant” in the assay on NIH/3T3 cells [1] (setting [6]) and “sensitive” in the assay on NIH/3T3 cells [1] (setting [7]).

Regarding `Nc1nc(O)c2ncn(COC(CO)CO)c2n1` [GCV, ganciclovir], the inhibition at 1 µM in assay [2] (Mus musculus, NIH3T3, NIH/3T3 cells transfected with tgCMV/HyTK, 1 μM GCV, 60 hours, read-out: Degree of inhibition of cell growth) is roughly 100%. For the same molecule, the “Effect of GCV on cell growth” value in assay [2] (NIH/3T3 cells transfected with tgCMV/HyTK) was “inhibits growth”; in assay [2] (NIH/3T3 cells transfected with tgCMV/hygro, 0.03 μM-1.0 μM GCV), “does not inhibit growth; also recorded: not adversely affected”; with transfected Rat-2 cells (Rat-2 cells transfected with tgCMV/HyTK (selected for Hm^r or HAT^r), lowest concentration 0.03 μM GCV), “inhibits growth; also recorded: almost completely inhibited”; in the assay on transfected Rat-2 cells (Rat-2 cells transfected with tgCMV/TK, higher concentrations required than for tgCMV/HyTK cells) it was “inhibits growth; also recorded: inhibited”; in the assay on transfected Rat-2 cells (Rat-2 cells transfected with tgCMV/hygro, 0.03 μM-1.0 μM GCV) it was “did not inhibit growth; also recorded: not inhibited”. Also, in the assay on transfected Rat-2 cells (Rat-2, both Hm^r and HAT^r selected pools), the “Sensitivity to GCV of Rat-2 cell pools transfected with tgCMV/HyTK relative to Rat-2 cells transfected with tgCMV/TK” value is on record as “over 30 fold”. For the same molecule, in the assay on NIH/3T3 cells [3] (NIH/3T3 cell pools infected with tgLS(+)HyTK or tgLS(−)CMV/HyTK, 500 μg/ml hygromycin B plus 1 μM GCV, 10 days), the “Growth as measured by colony formation” value was “almost completely inhibited”. Also, in the assay on NIH/3T3 cells [3] (cells infected with HyTK retroviral vectors), the “Infected cells killed by GCV” value is on record as greater than 99.9%. Besides, the “Frequency of colonies resistant to both Hm and GCV” value in the assay on NIH/3T3 cells [3] (retrovirus-infected NIH/3T3 populations, 500 μg/ml Hm plus 1 μM GCV) was 10^−4-10^−3. Besides, the “Growth of uninfected cells in GCV” value in the assay on NIH/3T3 cells [3] (uninfected NIH/3T3, 1 μM GCV, 10 days) is given as “resistant”. In addition, the “Eradication of tumors induced by the sarcoma cells” value in the assay on murine sarcoma (K3T3) is listed as “completely eradicated”. In assay [4] (same transgenic mice, Moolten et al. 1990), the “Regression of Abelson leukemia virus-induced lymphomas” value is given as “full regression”. Moreover, the “Ablation of cells expressing the HSV-I TK gene” value in assay [4] (transgenic animals, Heyman et al. 1989) is on record as “selective ablation”.

Regarding `CN[C@H]1C[C@@H](N)[C@H](O)[C@@H](O[C@@H]2O[C@H](CO)[C@H](O)[C@@H]3OC4(O[C@H]23)O[C@H]([C@@H](N)CO)[C@H](O)[C@H](O)[C@H]4O)[C@@H]1O` (stereo partly drawn) [Hm, hygromycin B], in the assay with NIH/3T3 cells [3] (uninfected NIH/3T3, 500 μg/ml Hm, 10 days), the “Growth of uninfected cells in Hm” value is recorded as “completely killed”.
